{"source": "patent US20140088052A1", "about": "“CHALCONE DERIVATIVES AS NRF2 ACTIVATORS” (THE JOHNS HOPKINS UNIVERSITY, priority 2011, published 2014)", "key": {"[1]": {"test_system": "mice subjected to total body irradiation (TBI)", "experiment": "Hematopoietic recovery after total body irradiation", "type": "in vivo", "description": "At indicated time periods, a cohort of mice was sacrificed. Peripheral blood was collected by heart puncture at the indicated days and differential blood cell count was analyzed using Hemavet 950FS(P<0.05, n=3 per group). Femur bones were fixed, decalcified sectioned along the sagittal plan and stained with hematoxylin and eosin for analyzing marrow cellularity."}, "Beas-2B cells": {"test_system": "Beas-2B cells", "experiment": "Cell viability / cytotoxicity (MTT assay) in Beas-2B cells", "type": "cell-based, human", "conditions": "24 h, DMSO = 100", "description": "Concurrent with the gene expression analysis, the cytotoxicity of the chalcone derivatives was determined using the MTT assay.\nMad. Chem. 2007, 15, 2952-2962. […] Four hours before the end of incubation, the medium was removed and 100 μL of MTT (5 mg/mL in serum free medium) was added to each well. The MTT was removed after 4 h, cells were washed with PBS, and 100 μL DMSO was added to each well to dissolve the water-insoluble MTT-formazan crystals. The absorbance was recorded at 570 nm in a plate reader (Molecular Devices, Sunnyvale, Calif.)."}, "[2]": {"test_system": "LPS-induced TNF-α secretion", "experiment": "LPS-induced TNF-α secretion by mouse peritoneal macrophages", "type": "cell-based, mice", "conditions": "5 μM or 10 μM for 16-20 h, LPS 100 ng/mL 4 h, compared to vehicle", "description": "After 4 h, TNF-α secretion in cell-free media by macrophages was analyzed by ELISA."}, "[3]": {"test_system": "mice subjected to total body irradiation (TBI)", "experiment": "Survival of mice after total body irradiation", "type": "in vivo, mice (C57BL/6)", "conditions": "5 more doses every 48 h; for survival: 30 days", "description": "To determine whether 2-trifluoromethyl-2′-methoxychalone, a potent Nrf2 activator, improves survival after lethal irradiation, irradiated mice were treated with 2-trifluoromethyl-2′-methoxychalone (200 μmol/kg body weight) or vehicle (100% PEG) by gavage. […] (LD70/30; 70% death in 30 days).\nTo investigate the therapeutic efficacy of compound 2b to mitigate mortality and the hematopoietic syndrome, mice were subjected to total body irradiation (TBI). C57BL/6 (8 wks, males,) were fed chow pellets ad libitum and supplied non-acidic water. Mice were subjected to TBI (0.65 Gy/min) in an AECL Gamma cell 40 irradiator (Atomic Energy, Canada).\nMortality was monitored every day for 30 days.\nMortality was monitored every day for 30 days. […] The percent mortality of mice treated with the vehicle at 1 h or 6 h after radiation was 100% (data not shown)."}}}
{"molecule": "COc1ccccc1C(=O)/C=C/c1ccccc1C(F)(F)F", "note": "[Compound 2b, (E)-1-(2-methoxyphenyl)-3-(2-(trifluoromethyl)phenyl)prop-2-en-1-one]", "values": [{"measurement": "bone marrow cellularity (H&E staining)", "setting": "[1]; 6.9 Gy TBI, day 7 and day 20, compared to vehicle", "value": "greater marrow cellularity"}, {"measurement": "WBC, RBC and platelets on day 22 post-irradiation", "setting": "[1]; 6.9 Gy TBI, oral treatment from 24 h after", "value": "significant increase in WBC, red blood cells (RBC) and platelets"}, {"measurement": "white blood cells, neutrophils and lymphocytes post-irradiation", "setting": "[1]; 6.9 Gy TBI, oral treatment from 24 h after, compared to vehicle", "value": "early increase in white blood cells (WBC), neutrophils and lymphocytes"}, {"measurement": "hematopoietic reconstitution (CBC analysis, WBC)", "setting": "[1]; 7.3 Gy TBI, treatment 24 hours after, 30 days", "value": "significant recovery of WBC"}, {"measurement": "% Cell Viability", "setting": "Beas-2B cells", "value": 100.9, "unit": "%"}, {"measurement": "LPS-induced TNF-α secretion by macrophages (ELISA)", "setting": "[2]", "value": "significant decrease in LPS-induced TNF-α secretion"}, {"measurement": "median survival", "setting": "[3]; 7.3 Gy TBI, treatment started 24 hours after irradiation, 200 μmol/kg by gavage, vehicle approximately 15 days", "value": 26, "unit": "days"}, {"measurement": "survival", "setting": "[3]; TBI 6.9 Gy, oral 400 mg/Kg started 24 h after TBI", "value": 90, "unit": "%"}, {"measurement": "survival", "setting": "[3]; TBI 7.1 Gy, oral 400 mg/Kg started 24 h after TBI", "value": 60, "unit": "%"}, {"measurement": "survival", "setting": "[3]; TBI 7.3 Gy, oral treatment started 1 h after TBI", "value": "approximately 60%"}, {"measurement": "survival", "setting": "[3]; TBI 7.3 Gy, oral treatment started 6 h after TBI", "value": "~50", "unit": "%"}]}
